Our source for the IC50 and inhibition values is patent US11780821B2, “Inhibitors of fibroblast activation protein” (Praxis Biotech LLC, priority 2017, dated 2023).

SMILES strings stand for the structures. Read-outs that look alike come from different tables or passages of the source.

Holding throughout (format): biochemical
Assay [1] addresses T1, recombinant human FAPα (rhFAPα) (Homo sapiens, UniProt Q12884).
T1 construct: purchased R&S system (so in the source)
T1 sequence (Q12884 1-760): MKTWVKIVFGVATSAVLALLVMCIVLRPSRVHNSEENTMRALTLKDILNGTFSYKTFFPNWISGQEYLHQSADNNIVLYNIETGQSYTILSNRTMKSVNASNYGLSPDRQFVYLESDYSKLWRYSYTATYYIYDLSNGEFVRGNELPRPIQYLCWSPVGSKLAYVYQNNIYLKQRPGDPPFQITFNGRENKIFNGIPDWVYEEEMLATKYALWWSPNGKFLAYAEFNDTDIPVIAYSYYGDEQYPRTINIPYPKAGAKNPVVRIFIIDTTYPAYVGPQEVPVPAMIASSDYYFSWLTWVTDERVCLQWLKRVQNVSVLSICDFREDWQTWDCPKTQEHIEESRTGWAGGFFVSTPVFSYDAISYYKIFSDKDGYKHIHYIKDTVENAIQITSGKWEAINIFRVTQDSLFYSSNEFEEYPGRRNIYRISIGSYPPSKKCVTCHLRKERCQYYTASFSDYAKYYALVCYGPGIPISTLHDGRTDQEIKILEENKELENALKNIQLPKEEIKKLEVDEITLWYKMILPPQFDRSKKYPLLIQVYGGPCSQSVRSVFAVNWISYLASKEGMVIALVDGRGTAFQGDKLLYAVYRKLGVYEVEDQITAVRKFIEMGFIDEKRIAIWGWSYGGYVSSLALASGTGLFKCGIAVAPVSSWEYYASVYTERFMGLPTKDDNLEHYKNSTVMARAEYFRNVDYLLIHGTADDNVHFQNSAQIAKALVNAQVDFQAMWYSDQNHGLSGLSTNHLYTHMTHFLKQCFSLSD
The assay can be described thus: FAPα enzymatic exopeptidase (dipeptidase) activity assay. As to conditions: for inhibition at 1 µM: read-out: rhFAPα (% exo inh @ 1 μM).

Assay [2] deals with T2, recombinant human PREP (rhPREP) (Homo sapiens, UniProt P48147).
T2 sequence (P48147 1-710): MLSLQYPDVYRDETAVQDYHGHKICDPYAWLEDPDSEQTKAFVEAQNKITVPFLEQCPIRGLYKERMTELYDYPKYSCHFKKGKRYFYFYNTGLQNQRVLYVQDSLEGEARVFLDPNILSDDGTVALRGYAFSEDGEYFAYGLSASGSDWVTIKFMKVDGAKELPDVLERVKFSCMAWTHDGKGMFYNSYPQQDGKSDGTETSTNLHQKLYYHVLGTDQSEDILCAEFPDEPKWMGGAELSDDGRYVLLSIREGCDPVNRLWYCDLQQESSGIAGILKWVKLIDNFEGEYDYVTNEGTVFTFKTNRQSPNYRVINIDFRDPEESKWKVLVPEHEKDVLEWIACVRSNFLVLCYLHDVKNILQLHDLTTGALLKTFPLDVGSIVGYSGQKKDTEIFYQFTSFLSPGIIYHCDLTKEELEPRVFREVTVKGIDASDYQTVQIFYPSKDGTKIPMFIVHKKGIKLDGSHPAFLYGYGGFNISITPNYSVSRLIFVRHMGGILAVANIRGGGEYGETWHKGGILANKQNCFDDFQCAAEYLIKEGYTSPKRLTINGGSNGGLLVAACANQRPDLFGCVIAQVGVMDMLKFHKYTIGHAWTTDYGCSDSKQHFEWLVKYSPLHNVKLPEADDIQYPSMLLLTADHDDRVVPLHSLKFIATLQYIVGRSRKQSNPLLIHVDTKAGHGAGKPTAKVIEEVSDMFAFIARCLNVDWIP
The assay can be described thus: PREP enzymatic activity assay. The conditions noted are these: Z-Gly-Pro-AMC substrate. The method, then:
(§1) 7-Amino-4-Methylcoumarin (AMC) release was detected by measuring fluorescence at Ex/Em 380/460 nm using a Multifunction Microplate Reader (Synergy 4, Biotek). All measurements were carried out in triplicate.

Assay [3] has as its target T3, recombinant human DPPIV (rhDPPIV) (Homo sapiens, UniProt P27487).
T3 construct: purchased R&S system (so in the source)
The assay can be described thus: DPPIV enzymatic activity assay. As to conditions: H-Gly-Pro-pNA substrate.

For a further assay, the target named is T4, mouse plasma FAPα (Mus musculus, UniProt P97321).
T4 construct: from tissue; host or cells: mouse plasma (C57BL/6, EDTA)
T4 sequence (P97321 24-761 limits assumed): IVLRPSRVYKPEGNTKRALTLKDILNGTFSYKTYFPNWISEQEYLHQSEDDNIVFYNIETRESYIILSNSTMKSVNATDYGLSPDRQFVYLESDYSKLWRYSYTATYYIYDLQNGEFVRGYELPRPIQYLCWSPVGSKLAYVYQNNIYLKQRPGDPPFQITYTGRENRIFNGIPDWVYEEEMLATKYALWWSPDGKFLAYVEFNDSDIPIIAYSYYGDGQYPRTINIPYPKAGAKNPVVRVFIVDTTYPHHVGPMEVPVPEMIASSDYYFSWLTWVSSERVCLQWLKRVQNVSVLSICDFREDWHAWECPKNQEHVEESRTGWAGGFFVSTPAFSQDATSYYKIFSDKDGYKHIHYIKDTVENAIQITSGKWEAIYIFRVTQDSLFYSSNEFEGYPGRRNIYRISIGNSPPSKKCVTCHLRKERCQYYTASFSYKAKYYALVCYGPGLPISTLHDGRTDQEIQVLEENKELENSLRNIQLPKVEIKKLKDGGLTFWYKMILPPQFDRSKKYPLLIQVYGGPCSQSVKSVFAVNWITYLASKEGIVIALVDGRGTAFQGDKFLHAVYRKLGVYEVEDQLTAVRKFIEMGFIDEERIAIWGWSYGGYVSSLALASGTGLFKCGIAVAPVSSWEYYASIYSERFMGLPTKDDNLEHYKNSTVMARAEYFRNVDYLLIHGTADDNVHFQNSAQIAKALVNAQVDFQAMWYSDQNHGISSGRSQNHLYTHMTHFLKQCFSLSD
The assay can be described thus: FAPα enzymatic activity in mouse plasma. As to conditions: C57BL/6 mouse plasma. On the procedure:
The blood sample was immediately centrifuged at approximately 9000 g at 4° C. for 5 minutes. Plasma was separated and stored at −80° C. in aliquots of 300 μL. […] The assay was performed for 1 hour at 37° C. protected from light. 7-Amino-4-Methylcoumarin (AMC) release was detected measuring fluorescence at an excitation wavelength of 380 nm and an emission wavelength of 460 nm using a Multifunction Microplate Reader (Synergy 4, Biotek). All measurements were carried out at least as a single point.

The target in assay [4] is T5, recombinant human DPP9 (rhDPP9) (Homo sapiens, UniProt Q86TI2).
T5 construct: purchased R&S system (so in the source)
T5 sequence (Q86TI2 whole entry): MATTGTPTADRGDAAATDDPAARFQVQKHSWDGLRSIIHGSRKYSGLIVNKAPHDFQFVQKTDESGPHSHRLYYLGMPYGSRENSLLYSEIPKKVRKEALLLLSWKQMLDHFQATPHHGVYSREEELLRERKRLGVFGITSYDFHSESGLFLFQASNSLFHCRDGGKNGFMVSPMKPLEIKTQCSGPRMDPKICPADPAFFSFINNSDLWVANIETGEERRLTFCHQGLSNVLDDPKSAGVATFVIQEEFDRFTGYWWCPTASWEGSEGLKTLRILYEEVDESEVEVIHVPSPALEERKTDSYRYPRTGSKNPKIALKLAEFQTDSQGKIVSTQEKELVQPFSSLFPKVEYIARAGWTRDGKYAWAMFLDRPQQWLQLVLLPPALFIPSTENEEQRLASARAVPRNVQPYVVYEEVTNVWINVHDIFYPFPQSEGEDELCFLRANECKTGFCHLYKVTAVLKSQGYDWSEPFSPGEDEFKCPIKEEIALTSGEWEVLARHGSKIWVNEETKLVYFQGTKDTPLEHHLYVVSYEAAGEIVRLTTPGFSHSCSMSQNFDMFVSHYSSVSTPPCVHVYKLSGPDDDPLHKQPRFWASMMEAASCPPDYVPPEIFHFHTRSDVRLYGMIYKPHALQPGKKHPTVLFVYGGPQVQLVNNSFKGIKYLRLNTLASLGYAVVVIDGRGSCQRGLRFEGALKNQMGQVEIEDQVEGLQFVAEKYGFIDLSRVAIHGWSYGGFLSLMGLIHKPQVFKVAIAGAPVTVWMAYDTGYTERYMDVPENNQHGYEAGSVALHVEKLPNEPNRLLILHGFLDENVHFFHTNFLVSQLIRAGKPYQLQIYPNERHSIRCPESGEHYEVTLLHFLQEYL
In words: DPP9 enzymatic activity assay. As to conditions: H-Gly-Pro-AMC substrate. On the procedure: as §1

Where [5] appears, read: Table 2, exopeptidase, Z-Gly-Pro-AMC, read-out: rhFAPα (exo IC50).
Setting [6] is: Table 3, exopeptidase, read-out: rhFAPα (exo IC50).
[7] abbreviates: PRXS-AMC substrate, read-out: mouse plasma FAPα (PRXS-AMC) (exo IC50).
Setting [8] is: Z-Gly-Pro-AMC substrate, read-out: mouse plasma FAPα (Z-Gly-Pro-AMC) (exo IC50).
Where [9] appears, read: 1 μM test compound, Z-Gly-Pro-AMC substrate.

T3 sequence (P27487 whole entry): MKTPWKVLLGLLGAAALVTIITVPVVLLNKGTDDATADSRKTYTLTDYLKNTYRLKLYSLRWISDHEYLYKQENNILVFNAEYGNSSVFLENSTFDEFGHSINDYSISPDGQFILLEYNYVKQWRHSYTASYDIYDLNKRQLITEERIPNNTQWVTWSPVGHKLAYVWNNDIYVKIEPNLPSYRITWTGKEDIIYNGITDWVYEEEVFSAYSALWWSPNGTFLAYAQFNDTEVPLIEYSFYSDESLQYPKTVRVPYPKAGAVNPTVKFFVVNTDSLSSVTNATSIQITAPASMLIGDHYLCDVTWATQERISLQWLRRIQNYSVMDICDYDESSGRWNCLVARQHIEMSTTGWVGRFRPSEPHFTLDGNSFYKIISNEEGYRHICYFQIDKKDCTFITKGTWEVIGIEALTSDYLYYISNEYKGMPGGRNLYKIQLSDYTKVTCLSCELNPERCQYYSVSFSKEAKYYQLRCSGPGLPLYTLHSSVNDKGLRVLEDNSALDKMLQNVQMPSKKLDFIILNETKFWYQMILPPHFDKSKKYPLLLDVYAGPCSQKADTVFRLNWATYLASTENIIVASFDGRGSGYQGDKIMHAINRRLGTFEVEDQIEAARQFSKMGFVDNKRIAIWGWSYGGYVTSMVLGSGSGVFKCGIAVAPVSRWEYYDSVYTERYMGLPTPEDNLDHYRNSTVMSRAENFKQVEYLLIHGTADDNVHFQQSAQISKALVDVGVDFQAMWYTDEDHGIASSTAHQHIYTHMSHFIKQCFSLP

One may read the IC50 as the concentration needed to halve the response being measured. Turning to `N#C[C@@H]1CC(F)(F)CN1C(=O)CNC(=O)c1ccncc1-c1ccccc1` [Compound 13, (S)—N-(2-(2-cyano-4,4-difluoropyrrolidin-1-yl)-2-oxoethyl)-3-phenylisonicotinamide], the 50% inhibitory concentration (IC50) in assay [1] (setting [5]) was less than 1000 nM; in assay [1] (setting [6]), less than 1000 nM; in assay [2], greater than 10000 nM; in assay [3], greater than 10000 nM; on mouse plasma FAPα (setting [7]) it was less than 1000 nM; at mouse plasma FAPα (setting [8]), less than 1000 nM. Besides, in assay [4], the half-maximal inhibitory concentration (IC50) was in the range of 1000 to 10000 nM. Also, in assay [1], the inhibition at 1 µM was greater than 50%.

For `N#C[C@@H]1CC(F)(F)CN1C(=O)CNC(=O)c1c[nH]c(=O)c(-c2ccccc2)c1` [Compound 14, (S)—N-(2-(2-cyano-4,4-difluoropyrrolidin-1-yl)-2-oxoethyl)-6-oxo-5-phenyl-1,6-dihydropyridine-3-carboxamide], the inhibition at 1 µM in assay [1] (setting [9]) was greater than 50%. The half-inhibitory concentration (IC50) is less than 1000 nM in assay [1] (setting [5]); less than 1000 nM in assay [1] (setting [6]); greater than 10000 nM in assay [2]; greater than 10000 nM in assay [3]; less than 1000 nM on mouse plasma FAPα (setting [7]); less than 1000 nM on mouse plasma FAPα (setting [8]). Moreover, the half-maximal inhibitory concentration (IC50) in assay [4] was in the range of 1000 to 10000 nM.

For `N#C[C@@H]1CC(F)(F)CN1C(=O)CNC(=O)c1ccncc1C1CC1` [Compound 24, (S)—N-(2-(2-cyano-4,4-difluoropyrrolidin-1-yl)-2-oxoethyl)-3-cyclopropylisonicotinamide], the half-maximal inhibitory concentration (IC50) in assay [1] (setting [5]) was less than 1000 nM; in assay [1] (setting [6]), less than 1000 nM; in assay [2], 1000 to 10000 nM; in assay [3], greater than 10000 nM; at mouse plasma FAPα (setting [7]) it was less than 1000 nM; at mouse plasma FAPα (setting [8]) it was less than 1000 nM. Besides, the concentration for half-maximal inhibition (IC50) in assay [4] lay in the range of 1000 to 10000 nM. For the same compound, the inhibition at 1 µM in assay [1] was greater than 50%.

With `N#C[C@@H]1CC(F)(F)CN1C(=O)CNC(=O)c1c[nH]c(=O)c2ccc(F)cc12` [Compound 26, (S)—N-(2-(2-cyano-4,4-difluoropyrrolidin-1-yl)-2-oxoethyl)-6-fluoro-1-oxo-1,2-dihydroisoquinoline-4-carboxamide], the inhibition at 1 µM in assay [1] (setting [9]) was greater than 50%. Besides, the concentration for half-maximal inhibition (IC50) in assay [1] (setting [5]) is less than 1000 nM; in assay [1] (setting [6]), less than 1000 nM; in assay [2], 1000 to 10000 nM; in assay [3], 1000 to 10000 nM; at mouse plasma FAPα (setting [7]), less than 1000 nM; on mouse plasma FAPα (setting [8]), less than 1000 nM. In addition, the 50% inhibitory concentration (IC50) in assay [4] was 1000 to 10000 nM.

On to `C=Cc1cnccc1C(=O)NCC(=O)N1CC(F)(F)C[C@H]1C#N` [Compound 40, (S)—N-(2-(2-cyano-4,4-difluoropyrrolidin-1-yl)-2-oxoethyl)-3-vinylisonicotinamide], for which, in assay [1] (setting [9]), the inhibition at 1 µM was greater than 50%. Further, the 50% inhibitory concentration (IC50) in assay [1] (setting [5]) is less than 1000 nM; in assay [1] (setting [6]), less than 1000 nM; in assay [2], 1000 to 10000 nM; in assay [3], greater than 10000 nM; at mouse plasma FAPα (setting [7]), less than 1000 nM; on mouse plasma FAPα (setting [8]), less than 1000 nM. The IC50 in assay [4] was greater than 10000 nM.

For `N#C[C@@H]1CC(F)(F)CN1C(=O)CNC(=O)c1ccncc1-c1cc(F)cc(F)c1` [Compound 47, (S)—N-(2-(2-cyano-4,4-difluoropyrrolidin-1-yl)-2-oxoethyl)-3-(3,5-difluorophenyl)isonicotinamide], the IC50 in assay [1] is less than 1000 nM; in assay [1] (read-out: rhFAPα (exo IC50), Table 3, exopeptidase), less than 1000 nM; in assay [2], greater than 10000 nM; in assay [3], greater than 10000 nM; at mouse plasma FAPα (setting [7]), less than 1000 nM; at mouse plasma FAPα (setting [8]) it was less than 1000 nM. Besides, the 50% inhibitory concentration (IC50) in assay [4] was greater than 10000 nM. For the same compound, the inhibition at 1 µM in assay [1] was greater than 50%.

With `N#C[C@@H]1CC(F)(F)CN1C(=O)CNC(=O)c1ccncc1Cc1ccccc1` [Compound 50, (S)-3-benzyl-N-(2-(2-cyano-4,4-difluoropyrrolidin-1-yl)-2-oxoethyl)isonicotinamide], the inhibition at 1 µM in assay [1] (setting [9]) was greater than 50%. Moreover, the concentration for half-maximal inhibition (IC50) is less than 1000 nM in assay [1] (setting [5]); less than 1000 nM in assay [1] (setting [6]); 1000 to 10000 nM in assay [2]; greater than 10000 nM in assay [3]; less than 1000 nM on mouse plasma FAPα (setting [7]); less than 1000 nM on mouse plasma FAPα (setting [8]). In assay [4], the 50% inhibitory concentration (IC50) is less than 1000 nM.

As to `N#C[C@@H]1CC(F)(F)CN1C(=O)CNC(=O)c1ccncc1-c1ccc(F)cc1` [Compound 52, (S)—N-(2-(2-cyano-4,4-difluoropyrrolidin-1-yl)-2-oxoethyl)-3-(4-fluorophenyl)isonicotinamide], the IC50 in assay [1] (setting [5]) is less than 1000 nM; in assay [1] (setting [6]), less than 1000 nM; in assay [2], greater than 10000 nM; in assay [3], greater than 10000 nM; at mouse plasma FAPα (setting [7]), less than 1000 nM; on mouse plasma FAPα (setting [8]), less than 1000 nM. Besides, in assay [4], the concentration for half-maximal inhibition (IC50) is greater than 10000 nM. Moreover, the inhibition at 1 µM in assay [1] is greater than 50%.

Regarding `N#C[C@@H]1CC(F)(F)CN1C(=O)CNC(=O)c1ccncc1-c1cc(Cl)ccc1F` [Compound 54, (S)-3-(5-chloro-2-fluorophenyl)-N-(2-(2-cyano-4,4-difluoropyrrolidin-1-yl)-2-oxoethyl)isonicotinamide], the inhibition at 1 µM in assay [1] (setting [9]) was greater than 50%. The IC50 is less than 1000 nM in assay [1] (setting [5]); less than 1000 nM in assay [1] (setting [6]); greater than 10000 nM in assay [2]; greater than 10000 nM in assay [3]; less than 1000 nM on mouse plasma FAPα (setting [7]); less than 1000 nM at mouse plasma FAPα (setting [8]). Besides, the IC50 in assay [4] is greater than 10000 nM.
